Measured values published in the NIST ThermoML archive (doi:10.1016/j.jct.2015.01.003).
± gives the expanded uncertainty stated by the source.

Experiment: excess molar enthalpy (molar enthalpy of mixing); xn = mol fraction of the nth substance listed
Conditions: 100 kPa, Liquid, Flow calorimetry

c1ccccc1 [benzene] + CCCO
Conditions	excess molar enthalpy [kcal/mol]
298.15 K, x1 = 0.0492	0.0253 ± 0.00263
298.15 K, x1 = 0.0993	0.0523 ± 0.00263
298.15 K, x1 = 0.1503	0.0798 ± 0.00263
298.15 K, x1 = 0.2006	0.106 ± 0.00263
298.15 K, x1 = 0.2499	0.132 ± 0.00287
298.15 K, x1 = 0.3001	0.156 ± 0.00287
298.15 K, x1 = 0.3493	0.178 ± 0.00287
298.15 K, x1 = 0.3994	0.198 ± 0.00287
298.15 K, x1 = 0.4505	0.217 ± 0.00311
298.15 K, x1 = 0.5004	0.231 ± 0.00311
298.15 K, x1 = 0.5491	0.243 ± 0.00311
298.15 K, x1 = 0.5987	0.251 ± 0.00311
298.15 K, x1 = 0.6492	0.256 ± 0.00311
298.15 K, x1 = 0.7006	0.255 ± 0.00311
298.15 K, x1 = 0.7507	0.249 ± 0.00311
298.15 K, x1 = 0.7994	0.237 ± 0.00311
298.15 K, x1 = 0.8489	0.217 ± 0.00311
298.15 K, x1 = 0.8992	0.184 ± 0.00311
298.15 K, x1 = 0.9504	0.128 ± 0.00311
313.15 K, x1 = 0.0493	0.0325 ± 0.00263
313.15 K, x1 = 0.0995	0.0662 ± 0.00263
313.15 K, x1 = 0.1506	0.1 ± 0.00287
313.15 K, x1 = 0.2009	0.133 ± 0.00287
313.15 K, x1 = 0.2503	0.162 ± 0.00287
313.15 K, x1 = 0.3005	0.191 ± 0.00287
313.15 K, x1 = 0.3498	0.217 ± 0.00311
313.15 K, x1 = 0.3999	0.24 ± 0.00311
313.15 K, x1 = 0.451	0.262 ± 0.00311
313.15 K, x1 = 0.5009	0.278 ± 0.00335
313.15 K, x1 = 0.5497	0.291 ± 0.00335
313.15 K, x1 = 0.5993	0.299 ± 0.00335
313.15 K, x1 = 0.6497	0.303 ± 0.00335
313.15 K, x1 = 0.701	0.3 ± 0.00335
313.15 K, x1 = 0.7511	0.291 ± 0.00335
313.15 K, x1 = 0.7997	0.276 ± 0.00335
313.15 K, x1 = 0.8491	0.25 ± 0.00335
313.15 K, x1 = 0.8994	0.209 ± 0.00335
313.15 K, x1 = 0.9505	0.14 ± 0.00335

Cc1ccccc1 [toluene] + CCCO
excess molar enthalpy [kcal/mol]
Conditions	298.15 K	313.15 K
x1 = 0.0503	0.0239 ± 0.00263	0.0339 ± 0.00263
x1 = 0.0998	0.0488 ± 0.00263	0.0681 ± 0.00263
x1 = 0.1497	0.0731 ± 0.00263	0.0994 ± 0.00287
x1 = 0.2	0.098 ± 0.00263	–
x1 = 0.2001	–	0.133 ± 0.00287
x1 = 0.2506	0.122 ± 0.00263	–
x1 = 0.2507	–	0.163 ± 0.00287
x1 = 0.2997	0.144 ± 0.00287	0.191 ± 0.00287
x1 = 0.3506	0.165 ± 0.00287	–
x1 = 0.3507	–	0.217 ± 0.00311
x1 = 0.3997	0.183 ± 0.00287	–
x1 = 0.3998	–	0.238 ± 0.00311
x1 = 0.4505	0.201 ± 0.00287	–
x1 = 0.4506	–	0.258 ± 0.00311
x1 = 0.5012	0.214 ± 0.00287	–
x1 = 0.5013	–	0.273 ± 0.00335
x1 = 0.5495	0.225 ± 0.00311	0.285 ± 0.00335
x1 = 0.5993	0.233 ± 0.00311	–
x1 = 0.5995	–	0.293 ± 0.00335
x1 = 0.651	0.238 ± 0.00311	0.297 ± 0.00335
x1 = 0.6997	0.238 ± 0.00311	–
x1 = 0.6998	–	0.296 ± 0.00335
x1 = 0.7501	0.234 ± 0.00311	0.288 ± 0.00335
x1 = 0.7996	0.223 ± 0.00311	0.273 ± 0.00335
x1 = 0.8506	0.205 ± 0.00311	–
x1 = 0.8507	–	0.248 ± 0.00335
x1 = 0.9007	–	0.21 ± 0.00335
x1 = 0.9008	0.176 ± 0.00311	–
x1 = 0.9496	0.126 ± 0.00311	0.143 ± 0.00335
